The source of these data is patent US5464617A, “β-lactam compounds” (Hoffmann-La Roche Inc., priority 1994, dated 1995).

≈ marks a conversion by molar mass, not a printed value. Structures can show the parent of a compound that is named as a salt.

In assay [1] the test system is E. coli 1346. As to the kind of experiment: Antibacterial activity of the products per se, serial dilution method in liquid medium (Test E). It counts as cell-based. As to conditions: product per se; for MIC E. coli 1346 (E): test E. The source says:
The antibacterial activity of the products per se is illustrated on the basis of Table 3 hereinafter, the minimum inhibitory concentration […] in vitro against E. coli 1346 being determined using the serial dilution method in liquid medium: […]

Assay [2] concerns Citrobacter freundii 1982. Nature of the assay: MIC in vitro of a 1:4 combination of ceftriaxone with a compound of formula I (Test D). It counts as cell-based. As to conditions: for MIC C. freundii 1982 (D): test D. As to the method:
The minimum inhibitory concentration in vitro ([…]) of a 1:4 combination of ceftriaxone with a compound of formula I against Citrobacter freundii 1982 was measured and compiled in Table 2 hereinafter.

Setting [3] is: Table 4, 1:4 combination of ceftriaxone with the compound.

As for `NC(=O)CNC(=O)Cn1nnnc1SCC1=C(C(=O)O)N2C(=O)[C@H]3NC[C@@H](O1)[C@H]32` [29(i), (1aS,3aR,6bS)-5-(1-(Carbamoylmethyl-carbamoylmethyl)-1H-tetrazol-5-ylsulphanylmethyl)-1-oxo-1,1a,2,3,3a,6b-hexahydro-4-oxa-2,6a-diazacyclobut[cd]indene-6-carboxylic acid], in assay [1] (Table 4), the “MIC E. coli 1346 (E)” value came out at 8 µg/mL (≈ 18.9 µM). For the same compound, the “MIC C. freundii 1982 (D)” value in assay [2] (setting [3]) was 8 µg/mL.

On to `O=C(Cn1nnnc1SCC1=C(C(=O)O)N2C(=O)[C@@H]3[C@H]2[C@H](C1)CN3C(=O)C(F)(F)F)Nc1ccc(O)cc1` [78(b), (1aS,3aR,6bR)-5-[1-(4-Hydroxy-phenylcarbamoylmethyl)-1H-tetrazol-5-ylsulphanylmethyl]-1-oxo-2-trifluoroacetyl-1a,2,3,3a,4,6b-hexahydro-1H-2,6a-diazacyclobut[cd]indene-6-carboxylic acid sodium salt], for which the “MIC E. coli 1346 (E)” value in assay [1] (Table 4) was 1 µg/mL. In addition, the “MIC C. freundii 1982 (D)” value in assay [2] (setting [3]) is 1 µg/mL.

On to `Cc1nnc(SCC2=C(C(=O)O)N3C(=O)[C@@H]4[C@H]3[C@H](C2)CN4C(=O)CSCC(N)=O)s1` [65(g), (1aS,3aR,6bR)-2-Carbamoylmethylsulphanylacetyl-5-(5-methyl-1,3,4-thiadiazol-2-ylsulphanylmethyl)-1-oxo-1a,2,3,3a,4,6b-hexahydro-1H-2,6a-diazacyclobut[cd]indene-6-carboxylic acid sodium salt], for which, in assay [1] (Table 4), the “MIC E. coli 1346 (E)” value came out at 8 µg/mL. Besides, in assay [2] (setting [3]), the “MIC C. freundii 1982 (D)” value stood at 0.5 µg/mL.

With `NC(=O)CNC(=O)OCC1=C(C(=O)O)N2C(=O)[C@H]3NC[C@@H](C1)[C@H]32` [Example 95, (1aS,3aR,6bR)-5-Carbamoylmethylcarbamoyloxymethyl-1-oxo-1a,2,3,3a,4,6b-hexahydro-1H-2,6a-diazacyclobut[cd]indene-6-carboxylic acid trifluoroacemte], in assay [1] (Table 4), the “MIC E. coli 1346 (E)” value was 4 µg/mL (≈ 12.3 µM). Further, in assay [2] (setting [3]), the “MIC C. freundii 1982 (D)” value amounted to 0.5 µg/mL.

On to `Cn1nnnc1SCC1=C(C(=O)O)N2C(=O)[C@@H]3[C@H]2[C@H](C1)CN3C=O` [Example 19(k), (1aS,3aR,6bR)-2-Formyl-5-(1-methyl-1H-tetrazol-5-ylsulphanylmethyl)-1-oxo-1a,2,3,3a,4,6b-hexahydro-1H-2,6a-diazacyclobut[cd]indene-6-carboxylic acid sodium salt], for which, in assay [1] (Table 4), the “MIC E. coli 1346 (E)” value is 0.5 µg/mL. For the same compound, the “MIC C. freundii 1982 (D)” value in assay [2] (setting [3]) amounted to 0.25 µg/mL.

As to `CS(=O)(=O)NCC1=C(C(=O)O)N2C(=O)[C@H]3NC[C@@H](C1)[C@H]32` [Example 87, (1aS,3aR,6bR)-5-Methylsulphonylaminomethyl-1-oxo-1a,2,3,3a,4,6b-hexahydro-1H-2,6a-diazacyclobut[cd]indene-6-carboxylic acid trifluoroacetate], the “MIC E. coli 1346 (E)” value in assay [1] (Table 4) amounted to 16 µg/mL. In assay [2] (setting [3]), the “MIC C. freundii 1982 (D)” value came to 4 µg/mL.

With `NC(=O)c1ccc(NC(=O)N2C[C@H]3CC(CSc4ccncc4)=C(C(=O)O)N4C(=O)[C@@H]2[C@@H]34)cc1` [18(e), (1aS,3aR,6bR)-2-(4-Carbamoyl-phenylcarbamoyl)-1-oxo-5-(pyridin-4-ylsulphanylmethyl)-1a,2,3,3a,4,6b-hexahydro-1H-2,6a-diazacyclobut[cd]indene-6-carboxylic acid], the “MIC E. coli 1346 (E)” value in assay [1] (Table 5, particularly preferred products) is over 32 µg/mL. In addition, the “MIC C. freundii 1982 (D)” value in assay [2] (Table 5, particularly preferred products, 1:4 combination with ceftriaxone) worked out at 0.12 µg/mL.

For the compound `[N-]=[N+]=NCC1=C(C(=O)O)N2C(=O)[C@@H]3[C@H]2[C@H](C1)CN3C(=O)Nc1ccc(O)cc1` [Example 82, (1aS,3aR,6bR)-5-Azidomethyl-2-(4-hydroxy-phenylcarbamoyl)-1-oxo-1a,2,3,3a,4,6b-hexahydro-1H-2,6a-diazacyclobut[cd]indene-6-carboxylic acid sodium salt], in assay [1] (Table 4), the “MIC E. coli 1346 (E)” value turned out to be 16 µg/mL. The “MIC C. freundii 1982 (D)” value in assay [2] (setting [3]) was 0.25 µg/mL.

In the case of `CS(=O)(=O)OC1=C(C(=O)O)N2C(=O)[C@@H]3[C@H]2[C@H](C1)CN3C(=O)NCc1cccs1` [9(c), (1aS,3aR,6bR)-5-Methylsulphonyloxy-2-(thien-2-ylmethylcarbamoyl)-1-oxo-1a,2,3,3a,4,6b-hexahydro-1H-2,6a-diazacyclobut[cd]indene-6-carboxylic acid sodium salt], the “MIC E. coli 1346” value in assay [1] (Table 3, liquid medium) turned out to be 8 µg/mL. For the same compound, in assay [2] (Table 2, 1:4 combination of ceftriaxone with the compound), the “MIC C. freundii 1982” value came to 1 µg/mL.

For the compound `Cn1nnnc1SCC1=C(C(=O)O)N2C(=O)[C@@H]3[C@H]2[C@@H](CN3C(=O)Nc2ccc(O)cc2)O1` [31(h), (1aS,3aR,6bS)-2-(4-hydroxy-phenylcarbamoyl)-5-(1-methyl-1H-tetrazol-5-ylsulphanylmethyl)-1-oxo-1,1a,2,3,3a,6b-hexahydro-4-oxa-2,6a-diazacyclobut[cd]indene-6-carboxylic acid sodium salt], the “MIC E. coli 1346 (E)” value in assay [1] (Table 4) was 8 µg/mL. Also, in assay [2] (setting [3]), the “MIC C. freundii 1982 (D)” value was 0.5 µg/mL.

With `Cn1nnnc1SC1=C(C(=O)O)N2C(=O)[C@@H]3[C@H]2[C@H](C1)CN3C(=O)C(F)(F)F` [Example 3(ab), (1aS,3aR,6bR)-5-(1-Methyl-1H-tetrazol-5-ylsulphanyl)-1-oxo-2-trifluoroacetyl-1a,2,3,3a,4,6b-hexahydro-1H-2,6a-diazacyclobut[cd]indene-6-carboxylic acid sodium salt], the “MIC E. coli 1346 (E)” value in assay [1] (Table 4) was determined as 32 µg/mL. Also, in assay [2] (setting [3]), the “MIC C. freundii 1982 (D)” value worked out at 16 µg/mL.

For `CC(=O)NCC1=C(C(=O)O)N2C(=O)[C@@H]3[C@H]2[C@H](C1)CN3C(=O)C(F)(F)F` [Example 86, (1aS,3aR,6bR)-5-Acetylaminomethyl-1-oxo-2-trifluoroacetyl-1a,2,3,3a,4,6b-hexahydro-1H-2,6a-diazacyclobut[cd]indene-6-carboxylic acid sodium salt], in assay [1] (Table 4), the “MIC E. coli 1346 (E)” value turned out to be 16 µg/mL. For the same compound, in assay [2] (setting [3]), the “MIC C. freundii 1982 (D)” value stood at 2 µg/mL.

With `CC(=O)Nc1nnc(SCC2=C(C(=O)O)N3C(=O)[C@@H]4[C@H]3[C@H](C2)CN4C(C)=O)s1` [19(j), (1aS,3aR,6bR)-2-Acetyl-5-(5-acetylamino-1,3,4-thiadiazol-2-ylsulphanylmethyl)-1-oxo-1a,2,3,3a,4,6b-hexahydro-1H-2,6a-diazacyclobut[cd]indene-6-carboxylic acid sodium salt], the “MIC E. coli 1346 (E)” value in assay [1] (Table 4) was 0.5 µg/mL. Also, the “MIC C. freundii 1982 (D)” value in assay [2] (setting [3]) was 2 µg/mL.

With `Cn1nnnc1SCC1=C(C(=O)O)N2C(=O)[C@@H]3[C@H]2[C@H](C1)CN3C(=O)CC#N` [Example 19(d), (1aS,3aR,6bR)-2-Cyanoacetyl-5-(1-methyl-1H-tetrazol-5-ylsulphanylmethyl)-1-oxo-1a,2,3,3a,4,6b-hexahydro-1H-2,6a-diazacyclobut[cd]indene-6-carboxylic acid sodium salt], in assay [1] (Table 4), the “MIC E. coli 1346 (E)” value worked out at 2 µg/mL. The “MIC C. freundii 1982 (D)” value in assay [2] (setting [3]) was 0.25 µg/mL.

`O=C([O-])C1=C(CSc2cc[n+](Cc3ccccc3)cc2)C[C@@H]2CN(C(=O)C(F)(F)F)[C@@H]3C(=O)N1[C@H]23` [52(d), (1aS,3aR,6bR)-5-(1-Benzyl-pyridin-4-yliosulphanylmethyl)-1-oxo-2-trifluoroacetyl-1a,2,3,3a,4,6b-hexahydro-1H-2,6a-diazacyclobut[cd]indene-6-carboxylate]: the “MIC E. coli 1346 (E)” value in assay [1] (Table 4) was determined as 2 µg/mL (≈ 3.97 µM). The “MIC C. freundii 1982 (D)” value in assay [2] (setting [3]) stood at 1 µg/mL.

With `O=C(O)C1=C(CSc2nc(-c3cccnc3)cs2)C[C@@H]2CN[C@@H]3C(=O)N1[C@H]23` [Example 66, (1aS,3aR,6bR)-1-Oxo-5-(4-pyridin-3-yl-thiazol-2-ylsulphanylmethyl)-1a,2,3,3a,4,6b-hexahydro-1H-2,6a-diazacyclobut[cd]indene6-carboxylic acid trifluoroacetate], the “MIC E. coli 1346 (E)” value in assay [1] (Table 4) turned out to be 4 µg/mL. Further, the “MIC C. freundii 1982 (D)” value in assay [2] (setting [3]) stood at 8 µg/mL.

As for `CC(=O)N1C[C@H]2CC(Sc3nnc(C)s3)=C(C(=O)O)N3C(=O)[C@@H]1[C@@H]23` [3(ac), (1aS,3aR,6bR)-2-Acetyl-5-(5-methyl-1,3,4-thiadiazol-2-ylsulphanyl)-1-oxo-1a,2,3,3a,4,6b-hexahydro-1H-2,6a-diazacyclobut[cd]indene-6-carboxylic acid sodium salt], in assay [1] (Table 4), the “MIC E. coli 1346 (E)” value came to 8 µg/mL. Besides, the “MIC C. freundii 1982 (D)” value in assay [2] (setting [3]) was 4 µg/mL.

As to `CC(=O)N1C[C@H]2SC(CSc3nnc(C)s3)=C(C(=O)O)N3C(=O)[C@@H]1[C@@H]23` [42(a), (1aS,3aR,6bS)-2-Acetyl-5-(5-methyl-1,3,4-thiadiazol-2-ylsulphanylmethyl)-1-oxo-4-thia-1,1a,2,3,3a,6b-hexahydro-2,6a-diazacyclobut[cd]indene-6-carboxylic acid sodium salt], the “MIC E. coli 1346 (E)” value in assay [1] (Table 4) amounted to 2 µg/mL. Also, the “MIC C. freundii 1982 (D)” value in assay [2] (setting [3]) came to 1 µg/mL.

Take `Cn1nnnc1SCC1=C(C(=O)O)N2C(=O)[C@@H]3[C@H]2[C@H](C1)CN3C(=O)C(F)(F)F` [Example 19(c), (1aS,3aR,6bR)-5-(1-Methyl-1H-tetrazol-5-ylsulphanylmethyl)-1-oxo-2-trifluoracetyl-1a,2,3,3a,4,6b-hexahydro-1H-2,6a-diazacyclobut[cd]indene-6-carboxylic acid sodium salt]: the “MIC E. coli 1346 (E)” value in assay [1] (Table 4) was determined as 2 µg/mL. In assay [2] (setting [3]), the “MIC C. freundii 1982 (D)” value was 0.5 µg/mL.

Turning to `NC(=O)CSC1=C(C(=O)O)N2C(=O)[C@@H]3[C@H]2[C@H](C1)CN3C(=O)C(F)(F)F` [3(al), (1aS,3aR,6bR)-5-Carbamoylmethylsulphanyl-1-oxo-2-trifluoroacetyl-1a,2,3,3a,4,6b-hexahydro-1H-2,6a-diazacyclobut[cd]indene-6-carboxylic acid sodium salt], the “MIC E. coli 1346 (E)” value in assay [1] (Table 4) was 8 µg/mL. In addition, the “MIC C. freundii 1982 (D)” value in assay [2] (setting [3]) was found to be 2 µg/mL.
